Where “and” joins values, the source holds several entries; their conditions need not be identical. Equal entries are not always repeated. Calls of active or inactive are those of the source. No rule for the calls is given here.
Tested on: rodent lifetime carcinogenesis bioassay, tumor incidence TD50
Experiment: chronic cancer bioassays in animals – CPDB, compiled studies (AID 1745844)
[1] = mouse, strain B6AKF1, females, oral dosing, site: lung, lesion: adenoma, dosed 76 weeks, study length 76 weeks

For `CCCCOCCOCCOCc1cc2c(cc1CCC)OCO2`, which carcinogen call (mouse, strain B6AKF1, females, oral dosing, site: liver, lesion: hepatoma, dosed 76 weeks, study length 76 weeks) is on record?
The carcinogen call was “negative (inactive)”.

What about the TD50 [1] of the same molecule?
Its TD50 is 265 mg/kg/day.

And the carcinogen call [1]?
Its carcinogen call is “negative (inactive)”.

What about the carcinogen call (mouse, strain B6AKF1, males, oral dosing, site: any site (literature study), lesion: several types, types named in the paper, dosed 76 weeks, study length 76 weeks) of the same molecule?
The carcinogen call was “negative (inactive)”.

What about the carcinogen call (mouse, strain B6AKF1, males, oral dosing, site: liver, lesion: hepatoma, dosed 76 weeks, study length 76 weeks) of the same molecule?
The carcinogen call was “negative (inactive)”.

What about the carcinogen call (mouse, strain B6AKF1, males, oral dosing, site: lung, lesion: adenoma, dosed 76 weeks, study length 76 weeks) of the same molecule?
The carcinogen call was “negative (inactive)”.

What about the carcinogen call (mouse, strain B6C3F1, females, in feed, site: any site (literature study), lesion: several types, types named in the paper, dosed 112 weeks, study length 112 weeks) of the same molecule?
The carcinogen call was “negative (inactive)”.

And the TD50 (mouse, strain B6C3F1, females, in feed, site: liver, lesion: hepatocellular adenoma + hepatocellular carcinoma + neoplastic nodule, dosed 112 weeks, study length 112 weeks)?
Its TD50 is 3260 mg/kg/day.

What about the carcinogen call (mouse, strain B6C3F1, females, oral dosing, site: any site (literature study), lesion: one or several types, types not named, dosed 76 weeks, study length 76 weeks) of the same molecule?
The carcinogen call was “negative (inactive)”.

And the TD50 (mouse, strain B6C3F1, females, oral dosing, site: any site (literature study), lesion: several types, types named in the paper, dosed 76 weeks, study length 76 weeks)?
Its TD50 is 83.1 mg/kg/day.

And the carcinogen call (mouse, strain B6C3F1, females, oral dosing, site: liver, lesion: hepatoma, dosed 76 weeks, study length 76 weeks)?
Its carcinogen call is “negative (inactive)”.

What about the carcinogen call (mouse, strain B6C3F1, females, oral dosing, site: lung, lesion: several types, types named in the paper, dosed 76 weeks, study length 76 weeks) of the same molecule?
Its carcinogen call is “negative (inactive)”.

What about the carcinogen call (mouse, strain B6C3F1, males, in feed, site: any site (literature study), lesion: several types, types named in the paper, dosed 112 weeks, study length 112 weeks) of the same molecule?
Its carcinogen call is “negative (inactive)”.

And the TD50 (mouse, strain B6C3F1, males, oral dosing, site: all sites, lesion: reticulum-cell sarcoma, dosed 76 weeks, study length 76 weeks)?
The TD50 was 34.8 mg/kg/day.

And the TD50 (mouse, strain B6C3F1, males, oral dosing, site: liver, lesion: hepatoma, dosed 76 weeks, study length 76 weeks)?
Its TD50 is 186 mg/kg/day (inactive) and 98.5 mg/kg/day.

And the carcinogen call (mouse, strain B6C3F1, males, oral dosing, site: lung, lesion: several types, types named in the paper, dosed 76 weeks, study length 76 weeks)?
Its carcinogen call is “negative (inactive)”.

What about the TD50 (mouse, strain Charles River CD1, females, in feed, site: liver, lesion: basophil adenoma, dosed 79 weeks, study length 79 weeks) of the same molecule?
The TD50 was 4540 mg/kg/day.

And the TD50 (mouse, strain Charles River CD1, females, in feed, site: liver, lesion: eosinophilic adenoma, dosed 79 weeks, study length 79 weeks)?
Its TD50 is 1120 mg/kg/day.

What about the TD50 (mouse, strain Charles River CD1, females, in feed, site: liver, lesion: hepatocellular adenoma, dosed 52 weeks, study length 52 weeks) of the same molecule?
Its TD50 is 2380 mg/kg/day.

And the TD50 (mouse, strain Charles River CD1, females, in feed, site: liver, lesion: hepatocellular adenoma, dosed 79 weeks, study length 79 weeks)?
The TD50 was 825 mg/kg/day.

And the TD50 (mouse, strain Charles River CD1, females, in feed, site: liver, lesion: hepatocellular carcinoma, dosed 52 weeks, study length 52 weeks)?
Its TD50 is 756 mg/kg/day.

And the TD50 (mouse, strain Charles River CD1, females, in feed, site: liver, lesion: several types, types named in the paper, dosed 52 weeks, study length 52 weeks)?
Its TD50 is 516 mg/kg/day.

And the TD50 (mouse, strain Charles River CD1, males, in feed, site: liver, lesion: basophil adenoma, dosed 79 weeks, study length 79 weeks)?
Its TD50 is 844 mg/kg/day.

And the TD50 (mouse, strain Charles River CD1, males, in feed, site: liver, lesion: eosinophilic adenoma, dosed 79 weeks, study length 79 weeks)?
Its TD50 is 355 mg/kg/day.

And the TD50 (mouse, strain Charles River CD1, males, in feed, site: liver, lesion: hepatocellular adenoma, dosed 52 weeks, study length 52 weeks)?
Its TD50 is 1060 mg/kg/day.

And the TD50 (mouse, strain Charles River CD1, males, in feed, site: liver, lesion: hepatocellular adenoma, dosed 79 weeks, study length 79 weeks)?
The TD50 was 160 mg/kg/day.

What about the TD50 (mouse, strain Charles River CD1, males, in feed, site: liver, lesion: hepatocellular carcinoma, dosed 52 weeks, study length 52 weeks) of the same molecule?
The TD50 was 410 mg/kg/day.

And the TD50 (mouse, strain Charles River CD1, males, in feed, site: liver, lesion: hepatocellular carcinoma, dosed 79 weeks, study length 79 weeks)?
The TD50 was 3470 mg/kg/day.

And the TD50 (mouse, strain Charles River CD1, males, in feed, site: liver, lesion: mixed cell adenoma, dosed 79 weeks, study length 79 weeks)?
Its TD50 is 2630 mg/kg/day.

What about the TD50 (mouse, strain Charles River CD1, males, in feed, site: liver, lesion: several types, types named in the paper, dosed 52 weeks, study length 52 weeks) of the same molecule?
Its TD50 is 229 mg/kg/day.

And the TD50 (rat, strain Charles River CD (Sprague-Dawley), females, in feed, site: liver, lesion: hepatocellular carcinoma, dosed 104 weeks, study length 104 weeks)?
Its TD50 is 12800 mg/kg/day (inactive).

What about the TD50 (rat, strain Charles River CD (Sprague-Dawley), males, in feed, site: liver, lesion: hepatocellular adenoma, dosed 104 weeks, study length 104 weeks) of the same molecule?
The TD50 was 12800 mg/kg/day (inactive).

And the TD50 (rat, strain Charles River CD (Sprague-Dawley), males, in feed, site: liver, lesion: hepatocellular carcinoma, dosed 104 weeks, study length 104 weeks)?
The TD50 was 78500 mg/kg/day (inactive).

And the carcinogen call (rat, strain F344/DuCrj, females, in feed, site: any site (literature study), lesion: several types, types named in the paper, dosed 104 weeks, study length 110 weeks)?
Its carcinogen call is “negative (inactive)”.

And the TD50 (rat, strain F344/DuCrj, females, in feed, site: liver, lesion: cholangioma, cystic, dosed 96 weeks, study length 96 weeks)?
The TD50 was 19100 mg/kg/day.

And the TD50 (rat, strain F344/DuCrj, females, in feed, site: liver, lesion: hepatocellular adenoma, dosed 96 weeks, study length 96 weeks)?
Its TD50 is 2460 mg/kg/day.

What about the TD50 (rat, strain F344/DuCrj, females, in feed, site: liver, lesion: hepatocellular carcinoma, dosed 96 weeks, study length 96 weeks) of the same molecule?
Its TD50 is 2220 mg/kg/day.

What about the TD50 (rat, strain F344/DuCrj, females, in feed, site: liver, lesion: hepatocellular tumor, dosed 96 weeks, study length 96 weeks) of the same molecule?
The TD50 was 977 mg/kg/day.

And the carcinogen call (rat, strain F344/DuCrj, females, in feed, site: liver, lesion: neoplastic nodule, dosed 104 weeks, study length 110 weeks)?
Its carcinogen call is “negative (inactive)”.

And the carcinogen call (rat, strain F344/DuCrj, males, in feed, site: any site (literature study), lesion: several types, types named in the paper, dosed 104 weeks, study length 110 weeks)?
Its carcinogen call is “negative (inactive)”.

What about the TD50 (rat, strain F344/DuCrj, males, in feed, site: liver, lesion: cholangioma, cystic, dosed 95 weeks, study length 95 weeks) of the same molecule?
Its TD50 is 30200 mg/kg/day.

And the TD50 (rat, strain F344/DuCrj, males, in feed, site: liver, lesion: hepatocellular adenoma, dosed 95 weeks, study length 95 weeks)?
The TD50 was 1400 mg/kg/day.

And the TD50 (rat, strain F344/DuCrj, males, in feed, site: liver, lesion: hepatocellular carcinoma, dosed 95 weeks, study length 95 weeks)?
Its TD50 is 806 mg/kg/day.

And the TD50 (rat, strain F344/DuCrj, males, in feed, site: liver, lesion: hepatocellular carcinoma, dosed 104 weeks, study length 110 weeks)?
Its TD50 is 20100 mg/kg/day (inactive).

And the TD50 (rat, strain F344/DuCrj, males, in feed, site: liver, lesion: hepatocellular tumor, dosed 95 weeks, study length 95 weeks)?
The TD50 was 468 mg/kg/day.

And the TD50 (rat, strain F344/DuCrj, males, in feed, site: liver, lesion: neoplastic nodule, dosed 104 weeks, study length 110 weeks)?
The TD50 was 7690 mg/kg/day (inactive).

What about the TD50 (rat, strain Fischer 344, females, in feed, site: all sites, lesion: lymphoma, dosed 107 weeks, study length 107 weeks) of the same molecule?
The TD50 was 1180 mg/kg/day (inactive).

And the TD50 (rat, strain Fischer 344, females, in feed, site: any site (literature study), lesion: several types, types named in the paper, dosed 107 weeks, study length 107 weeks)?
The TD50 was 7820 mg/kg/day.

What about the carcinogen call (rat, strain Fischer 344, males, in feed, site: any site (literature study), lesion: several types, types named in the paper, dosed 107 weeks, study length 107 weeks) of the same molecule?
The carcinogen call was “negative (inactive)”.

What about the TD50 (rat, strain Wistar, both sexes, in feed, site: liver, lesion: hepatocellular carcinoma, dosed 95 weeks, study length 104 weeks) of the same molecule?
The TD50 was 26100 mg/kg/day (inactive).

What about the TD50 (rat, strain Wistar, both sexes, in feed, site: liver, lesion: hepatoma, dosed 95 weeks, study length 104 weeks) of the same molecule?
The TD50 was 22500 mg/kg/day (inactive).
